Measurements as given in publication PMC12095047, “Transport of phenoxyacetic acid herbicides by PIN-FORMED auxin transporters” (Nature Plants, 2025).
Values joined by “and” are separate entries in the source; they are usually repeats but may differ in a detail not shown here. Equal values may be shown once.

Legend:
A. thaliana PIN8 = molecular target: T1, A. thaliana PIN8 (Arabidopsis thaliana, UniProt Q9LFP6); test: SSM electrophysiology, peak current response on PIN8 proteoliposomes; format: biochemical; conditions: for Peak current: WT, individual sensors; for Peak current (nA): Sensor 1-3
T1 construct: made in house
T1 sequence (Q9LFP6 1-367): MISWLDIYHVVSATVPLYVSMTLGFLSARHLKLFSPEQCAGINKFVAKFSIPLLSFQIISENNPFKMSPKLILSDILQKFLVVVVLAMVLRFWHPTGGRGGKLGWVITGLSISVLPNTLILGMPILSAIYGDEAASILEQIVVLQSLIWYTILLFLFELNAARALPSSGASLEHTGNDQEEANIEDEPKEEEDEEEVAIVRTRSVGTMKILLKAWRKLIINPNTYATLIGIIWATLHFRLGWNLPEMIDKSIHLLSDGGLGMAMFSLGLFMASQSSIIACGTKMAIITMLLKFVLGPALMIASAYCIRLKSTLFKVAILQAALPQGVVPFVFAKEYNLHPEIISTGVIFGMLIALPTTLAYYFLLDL
Procedure: (§1) SSM, using a SURFE2R N1 from Nanion Technologies, was conducted as described. In brief, soy polar lipid mix (38% phosphatidyl choline, 30% phosphatidyl ethanolamine, 18% phosphatidyl inositol, 7% phosphatidic acid and 7% other soy lipids) and 1-palmitoyl-2-oleoyl-sn-glycero-3-phosphocholin were purchased from Avanti. Liposomes were prepared in Ringer solution without Ca^2+ (115 mM NaCl, 2.5 mM KCl, 1 mM NaHCO3, 10 mM HEPES pH7.4, 1 mM MgCl2) and homogenized using a Lipsofast (Avestin) with a […]. Triton X-100 was added to the liposomes to a final concentration of 1% (v/v). Protein was added to liposomes to a calculated lipid-to-protein ratio (LPR) of 10 unless stated otherwise. The detergent was removed using 400 mg ml^−1 Bio Beads (BioRad) overnight at 4 °C in a rotary shaker. Proteoliposomes were frozen in liquid nitrogen and kept at −80 °C until use. Proteoliposomes were diluted 1:5 in Ringer solution without Ca^2+, sonicated five times and then applied to the sensors by centrifugation (30 min, 3,000 g, 4 °C). Non-activating buffer was Ringer solution without Ca^2+ as described unless specified otherwise, and activating buffer contained the substrate of interest. In most instances we used a single-solution exchange experiment. In this case proteoliposomes, immobilized on the supported membrane, are kept in non-activating buffer as specified. At the beginning of the experiment the non-activating buffer is replaced with fresh identical non-activating buffer, and after 1 s, activating buffer (same buffer containing substrate) is added. After another second, the buffer is replaced with non-activating buffer again. Current response is recorded throughout the entire 3 s. For competition or inhibition, the respective compound was present in non-activating and activating solutions. Each experiment was performed on at least two individual sensors. On each sensor each measurement consists of three technical replicates where the mean is calculated. KD values were determined as described previously. Briefly, the binding current induced by 100 µM NPA was recorded in the presence of different concentrations of the substrate under investigation ranging between 0 µM and 1,000 µM present in the activating solution and the non-activating solution (Extended Data Fig. 5b). […] The maximum peak current was then plotted as a function of the concentration of the substrate under investigation and plotted against the degree of inhibition and fitted with a one-site binding model using GraphPad Prism V10.4.1 The half maximal concentration corresponds to the KD of the substrate under investigation.

PIN8 = molecular target: T2, PIN8 (Arabidopsis thaliana, UniProt Q9LFP6); test: SSM electrophysiology, KD by inhibition of the NPA binding current; conditions: individual sensors
T2 construct: made in house
T2 sequence (Q9LFP6 1-367): T1 sequence (Q9LFP6 1-367)
Procedure: as §1

A. thaliana PIN3 = molecular target: T3, A. thaliana PIN3 (Arabidopsis thaliana, UniProt Q9S7Z8); test: Xenopus oocyte efflux assay, PIN3 with or without PID kinase; format: cell-based; conditions: PID +, NPA -, single experiments
T3 construct: expressed in transfected cells; host or cells: Xenopus oocytes (cRNA injection)
T3 sequence (Q9S7Z8 1-640): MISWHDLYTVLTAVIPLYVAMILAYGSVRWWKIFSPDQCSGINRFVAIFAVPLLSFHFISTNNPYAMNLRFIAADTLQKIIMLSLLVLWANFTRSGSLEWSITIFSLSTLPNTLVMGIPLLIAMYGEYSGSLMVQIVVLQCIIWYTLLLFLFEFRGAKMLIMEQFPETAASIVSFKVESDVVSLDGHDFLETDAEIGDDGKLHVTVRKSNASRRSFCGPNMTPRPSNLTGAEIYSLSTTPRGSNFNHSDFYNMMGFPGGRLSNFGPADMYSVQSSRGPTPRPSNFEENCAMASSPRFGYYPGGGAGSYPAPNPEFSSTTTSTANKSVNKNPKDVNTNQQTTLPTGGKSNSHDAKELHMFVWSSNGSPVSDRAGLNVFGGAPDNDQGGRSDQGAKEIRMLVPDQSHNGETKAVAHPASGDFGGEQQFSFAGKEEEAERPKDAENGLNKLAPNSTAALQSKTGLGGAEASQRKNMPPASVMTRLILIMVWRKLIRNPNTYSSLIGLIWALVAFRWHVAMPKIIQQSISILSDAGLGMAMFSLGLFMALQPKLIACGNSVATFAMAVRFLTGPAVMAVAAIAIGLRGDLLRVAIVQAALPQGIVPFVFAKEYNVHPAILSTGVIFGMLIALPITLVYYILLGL
Procedure: Oocyte efflux experiments were carried out as described[12],[20],[26]. Briefly, oocytes were injected with 150 ng transporter complementary RNA without or with 75 ng kinase cRNA. [^3H]-IAA (25 Ci mmol^−1) and [^3H]-4-CPA (37.7 Ci mmol^−1) was purchased from RC Tritec. [^3H]-2,4-D (25 Ci mmol^−1) was purchased from ARC. Oocytes were injected with substrate to reach an internal concentration of 1 µM, corresponding to 100%. Residual radioactivity was determined for each individual oocyte by liquid scintillation counting after the time points indicated and are expressed relative to the initial 100%. Each time point represents the mean and s.e. of ten oocytes. To calculate the relative transport rate in percentage per minute, linear regression was performed. Each data point in Fig. 1b,c and Extended Data Fig. 2b,e represents the transport rate of one biological replicate using oocytes collected from different Xenopus females.

[1] = WT PIN8 proteoliposomes, Michaelis–Menten fit

With `O=C(O)Cc1c[nH]c2ccccc12` [IAA, indole-3-acetic acid] the EC50 (A. thaliana PIN8; [1]) was 250 µM and 254 µM, the “maximal current Imax” value (A. thaliana PIN8; [1]) was 18 ± 3 nA and the Peak current (A. thaliana PIN8; 5 µM substrate) was 0.8096 nA and 0.6401 nA and 0.949 nA. For the same compound, the Peak current (A. thaliana PIN8; 20 µM substrate) was 1.842 nA and 1.724 nA and 2.164 nA, the Peak current (A. thaliana PIN8; 50 µM substrate) was 3.368 nA and 3.292 nA and 4.115 nA and the Peak current (A. thaliana PIN8; 100 µM substrate) was 4.516 nA and 4.8122 nA and 5.921 nA. For the same compound, the Peak current (A. thaliana PIN8; 500 µM substrate) was 9.827 nA and 10.2734 nA and 12.6135 nA, the Peak current (A. thaliana PIN8; 1000 µM substrate) was 13.1379 nA and 13.1579 nA and 16.4113 nA and the Peak current (A. thaliana PIN8; 2000 µM substrate) was 14.7357 nA and 15.0585 nA and 18.9117 nA. For the same compound, the “Peak current (nA)” value (A. thaliana PIN8; [IAA] 5 µM) was 0.04999 nA and 0.08856 nA and 0.0843 nA, the “Peak current (nA)” value (A. thaliana PIN8; [IAA] 50 µM) was 0.4222 nA and 0.6123 nA and 0.4745 nA and the “Peak current (nA)” value (A. thaliana PIN8; [IAA] 100 µM) was 0.6662 nA and 0.8986 nA and 0.7119 nA. The “Peak current (nA)” value (A. thaliana PIN8; [IAA] 500 µM) was 1.469 nA and 1.771 nA and 1.558 nA, the “Peak current (nA)” value (A. thaliana PIN8; [IAA] 1000 µM) was 1.848 nA and 2.271 nA and 1.967 nA and the “Peak current (nA)” value (A. thaliana PIN8; [IAA] 2000 µM) was 2.237 nA and 2.442 nA and 2.41 nA. It also gave an inhibition at 5 µM (PIN8; read-out: Rel. Inhibition of NPA peak currents, 5 µM substrate, 100 µM NPA) of 14.1%, an inhibition at 50 µM (PIN8; read-out: Rel. Inhibition of NPA peak currents, 50 µM substrate, 100 µM NPA) of 57% and an inhibition at 100 µM (PIN8; read-out: Rel. Inhibition of NPA peak currents, 100 µM substrate, 100 µM NPA) of 77.9%. For the same compound, the inhibition at 250 µM (PIN8; read-out: Rel. Inhibition of NPA peak currents, 250 µM substrate, 100 µM NPA) was 84.7%, the inhibition at 500 µM (PIN8; read-out: Rel. Inhibition of NPA peak currents, 500 µM substrate, 100 µM NPA) was 94.3% and the inhibition at 1000 µM (PIN8; read-out: Rel. Inhibition of NPA peak currents, 1000 µM substrate, 100 µM NPA) was 84.7%. For the same compound, the Kd (PIN8; sheet F2A (Fig. 2a, KD of substrate binding), read-out: Peak current) was 38.8 µM and 54 µM and 24.3 µM and the “Rel. IAA transport rate (% exported/min)” value (A. thaliana PIN3) was 5.59 % exported/min and 5.28 % exported/min and 4.145 % exported/min.
